From patent US20110319347A1, “ANTIOXIDANT AGENT” (priority 2009, published 2011)

How the values were obtained:
[1] = DPPH radical scavenging ability; assay type: biochemical; conditions: for BHT-Relative Antioxidant Ability (%) DPPH Method: sample concentration 500 μM, 50 minutes at room temperature, absorbance at 517 nm, relative to 500 μM BHT; for Radical scavenging ability (DPPH) compared in words with BHT or Pro-His-His: 500 μM
Description: (§1) The antioxidant action of a peptide may be determined by a known method such as DPPH method or β-carotene bleaching method (see, e.g., Chen, H M., Muramoto, K., Yamauchi, F., and Nokihara, K., J. Agric. Food Chem., 44, 2619-2623, 1996. Antioxidant Activity of Designed Peptides Based on the Antioxidative Peptide Isolated from Digests of a Soybean Protein). DPPH method is to measure radical scavenging ability using 1,1-diphenyl-2-picrylhydrazyl (DPPH). […] In addition, the level of an antioxidant action can be evaluated by the degree of decrease of absorbance. β-carotene bleaching method is to calculate antioxidant ability of an analyte by autoxidizing a mixture of β-carotene, linoleic acid and the analyte and measuring suppression of β-carotene oxidization. […] In addition, the level of an antioxidant action can be evaluated by the degree of decrease of absorbance. Such known evaluation methods as described above reflect a part of antioxidant mechanisms which act in a living body in parallel.
Next, DPPH was dissolved in ethanol to prepare 10 mL of 0.1 mM DPPH-ethanol solution, and 0.15 mL of this DPPH-ethanol solution and 0.15 mL of the above-prepared undiluted solution were mixed and stirred (the sample concentration: 500 μM). The reaction was allowed to proceed for 50 minutes at room temperature, and the absorbance at 517 nm wavelength was measured with a UV-VIS spectrophotometer (JASCO V-570). For blanks, a blank solution was prepared using the same volume of ethanol instead of DPPH, and the absorbance of the blank solution was measured via the same reaction condition. For controls, a control solution was prepared using ethanol instead of sample solutions, and the absorbance of the control solution was measured via the same reaction condition.
The DPPH radical scavenging ability was calculated according to the following formula.
Radical Scavenging Ability AntOx(%)=(Acon−Asam)/Acon×100
Acon=The absorbance of the control after being left to stand for 50 minutes. Asam=The absorbance of the sample after being left to stand for 50 minutes.
(§2) The BHT-relative antioxidant ability was calculated according to the following formula.
BHT-Relative Antioxidant Ability(%)=[AntOx(%)]/[500 μM BHT(%)]×100

[2] = β-carotene bleaching method (carotene-linoleic acid autoxidation); assay type: biochemical; conditions: for BHT-Relative Antioxidant Ability (%) β-Carotene Method: sample concentration 5 μM, 50 minutes at 50° C., absorbance at 492 nm, relative to 5 μM BHT; for Antioxidant ability (β-carotene method) compared in words with BHT or Pro-His-His: 5 μM
Description: as §1
β-carotene was dissolved in chloroform to prepare 1 mg/mL solution. Linoleic acid was dissolved in chloroform to prepare 0.1 g/mL solution. Tween 40 was dissolved in chloroform to prepare 0.2 g/mL solution. Into 100 mL recovery flasks, 0.15 mL of β-carotene solution in chloroform, 0.1 mL of linoleic acid solution in chloroform, and 0.3 mL of Tween 40 solution in chloroform were aliquoted, and the mixed solution was evaporated to dryness with an evaporator until the smell of chloroform was completely disappeared. The dried mixture was dissolved in 30 mL of pure water, and 2.7 mL of 0.2 M phosphate buffer (pH 6.8) was further added thereto, followed by gentle stirring to prepare carotene-linoleic acid solution. Next, the peptides obtained in Example 1 were dissolved in ethanol to prepare 1 mL of 0.05 mM peptide solutions, respectively.
Thereafter, 0.45 mL of carotene-linoleic acid solution and 0.05 mL of undiluted sample solution were mixed and stirred (sample concentration: 5 μM), and the reaction was allowed to proceed for 50 minutes at 50° C. Five minutes and 50 minutes after the start of the reaction, the absorbance at OD 492 nm was measured with a UV-VIS spectrophotometer. For blanks, a blank solution was prepared using the same volume of distilled water instead of carotene-linoleic acid solution, and the absorbance of the blank solution was measured via the same reaction condition. For controls, a control solution was prepared using ethanol instead of sample solutions, and the absorbance of the control solution was measured via the same reaction condition.
The antioxidant ability was calculated according to the following formula.
Antioxidant ability(%)=[1-−A5S−A50S)/(A5C−A50C)]×100
A5C=The absorbance of the control after 5-minute reaction. A5S=The absorbance of the sample after 5-minute reaction. A50C=The absorbance of the control after 50-minute reaction. A50S=The absorbance of the sample after 50-minute reaction.
as §2
BHT-Relative Antioxidant Ability(%)=[AntOx(%)]/[5 μM BHT(%)]×100

ddY mice = assay: Acute dermal toxicity study of mimosine cream; assay type: in vivo; conditions: cream applied to shaved trunk twice a day for three days; skins surveyed at day 5
Experimental: Vegetable emulsified wax (emulsifying wax, Orangeflower Inc., ingredients: stearyl alcohol, polysorbate 60) and oil (edible olive oil, Ajinomoto Co., Inc.) were completely melted in hot water (50° C.). Warm water (ultrapure water) was added thereto, and the mixture was mixed. An aqueous solution of mimosine or mimosine-introduced peptide was added thereto, and the mixture was completely mixed up. The obtained mixture was stored at 4° C. until use in the animal experiment.
The left and right sides of the trunk of ddY mice (9-week-old, male, 6 mice in each group) were shaved with clippers under anesthesia with ether. […] Any special changes were not observed. […] Therefore, it is thought that mimosine and mimosine-introduced peptide can be utilized in the cosmetic field.

Mushroom tyrosinase = Mushroom tyrosinase (Agaricus bisporus, UniProt C7FF04); assay: Tyrosinase inhibitory activity with L-DOPA as substrate; assay type: biochemical; conditions: for IC50: pH 6.8, room temperature, absorbance at 475 nm for 60 seconds, read-out: IC50 for tyrosinase inhibition
Mushroom tyrosinase, sequence (G1K3P4 entry or part of it): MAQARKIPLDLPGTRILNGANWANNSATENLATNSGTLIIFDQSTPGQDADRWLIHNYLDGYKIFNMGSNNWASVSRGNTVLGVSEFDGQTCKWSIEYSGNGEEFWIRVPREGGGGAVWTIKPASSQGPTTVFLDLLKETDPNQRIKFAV
Mushroom tyrosinase, sequence (C7FF04 1-392): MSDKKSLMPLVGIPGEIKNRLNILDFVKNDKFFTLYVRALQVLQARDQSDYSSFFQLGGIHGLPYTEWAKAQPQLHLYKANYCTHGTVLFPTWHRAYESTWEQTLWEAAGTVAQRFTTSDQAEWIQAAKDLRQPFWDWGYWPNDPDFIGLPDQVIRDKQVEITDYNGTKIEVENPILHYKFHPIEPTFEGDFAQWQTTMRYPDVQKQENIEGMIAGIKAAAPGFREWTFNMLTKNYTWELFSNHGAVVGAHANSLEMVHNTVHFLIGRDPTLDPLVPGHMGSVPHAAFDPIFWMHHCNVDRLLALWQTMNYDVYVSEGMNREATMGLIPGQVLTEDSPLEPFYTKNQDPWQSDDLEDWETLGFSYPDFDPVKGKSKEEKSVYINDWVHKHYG
Experimental: Tyrosinase inhibitory activity of a peptide can be evaluated by a known method using tyrosinase and its substrate such as L-dihydroxyphenylalanine (L-DOPA) or L-tyrosine. Specific examples of the evaluation method are described in the Examples below. For example, a peptide whose tyrosinase inhibitory activity should be measured, tyrosinase, and its substrate are dissolved in phosphate buffer, respectively (the peptide and tyrosinase may be dissolved in the same solution). Immediately after mixing the three components, change in absorbance at 475 nm is measured with a spectrophotometer. Since melanin has an absorption maximum at 475 nm, absorbance at 475 nm increases if melanin is synthesized from L-DOPA by tyrosinase. […] Therefore, the tyrosinase inhibitory activity of a peptide can be evaluated based on the change in absorbance.
Mushroom tyrosinase (SIGMA-Aldrich, Missouri, USA)
L-DOPA (SIGMA-Aldrich, Missouri, USA)
50 mM Sodium phosphate buffer (pH 6.8)
Using 50 mM sodium phosphate buffer (pH 6.8), 5 mM L-DOPA solution, mushroom tyrosinase solution (2 units/μL) and 1 mM inhibitor stock solution (×10) were prepared.
Reaction Solution A (25 μL of 5 mM DOPA solution; 75 μL of 50 mM sodium phosphate buffer (pH 6.8)) and Reaction Solution B (25 μL of inhibitor stock solution; 12.5 μL of tyrosinase solution; 112.5 μL of 50 mM sodium phosphate buffer (pH 6.8)) were prepared in two Eppendorf tubes, respectively. Reaction Solutions A and B were mixed just before the measurement, and the absorbance at 475 nm wavelength was measured with a spectrophotometer (V-570, Jasco, Tokyo, Japan). The measurement was carried out for 60 seconds at room temperature, and the absorbance was recorded every 1 second. This operation was repeated 3 times for each sample concentration.
The tyrosinase activity ratio at each inhibitor concentration was calculated based on the control (tyrosinase alone) value, and IC50s for tyrosinase inhibition of the samples were calculated using Ngraph. The fitting formula below was used in the calculation.
y=a−(a−b)/(1+(x/c)̂d (a=Minimum value of y; b=Maximum value of y; c=[…]; d=Variable)

Compound | BHT-Relative Antioxidant Ability (%) DPPH Method [1] | BHT-Relative Antioxidant Ability (%) β-Carotene Method [2] | Acute dermal toxicity (skin condition) (ddY mice) | Radical scavenging ability (DPPH) compared in words with BHT or Pro-His-His [1] | Antioxidant ability (β-carotene method) compared in words with BHT or Pro-His-His [2] | Tyrosinase inhibitory activity compared in words with mimosine or kojic acid (Mushroom tyrosinase) | IC50 (Mushroom tyrosinase)
Cc1cc(C(C)(C)C)c(O)c(C(C)(C)C)c1 [BHT, butylated hydroxytoluene, reference compound] | 100.00% | 100.00% | – | – | – | – | –
NC(Cn1ccc(=O)c(O)c1)C(=O)O (stereo not drawn) [Mimosine] | – | – | neither mimosine nor a mimosine-introduced peptide has an acute dermal toxicity | – | – | – | –
Arg-His-Trp [Sample 5X, reference compound] | 11.26% | 41.37% | – | – | – | – | –
Leu-His-Mim [Sample 8] | 26.45% | 77.79% | – | – | – | – | –
Leu-His-Trp [Sample 8X, reference compound] | 41.92% | 46.79% | – | – | – | – | –
Leu-Trp-Mim [Sample 9] | 41.02% | 77.32% | – | – | – | – | –
Leu-Trp-Trp [Sample 6X, reference compound] | 73.27% | 28.28% | – | – | – | – | –
Mim-Arg-Tyr [Sample 2] | 77.89% | 66.77% | – | – | – | – | –
Mim-His-Trp [Sample 5] | 99.06% | 92.66% | – | at the same level as or higher than BHT | at the same level as BHT | higher than kojic acid | 3.02 µM
Mim-His-Tyr [Sample 3] | 84.88% | 95.80% | – | – | at the same level as BHT | – | 8.84 µM
Mim-Pro-His-His [Sample 1] | 111.67% | 93.86% | – | at the same level as or higher than BHT | at the same level as BHT | – | 16.4 µM
Mim-Trp-Trp [Sample 6] | 117.34% | 72.56% | – | at the same level as or higher than BHT | – | – | 28.2 µM
MimLys-Tyr [Sample 4] | 75.33% | 81.96% | – | – | – | – | –
Pro-His-His [Sample 1X, reference compound] | 23.01% | 63.00% | – | – | – | – | –
Pro-His-Mim [Sample 10] | 26.45% | 79.55% | – | – | – | – | –
Pro-His-Tyr [Sample 3X, reference compound] | 9.63% | 33.56% | – | – | – | – | –
Pro-Mim-His [Sample 7] | 37.04% | 73.07% | – | – | – | – | –
Tyr-Arg-Tyr [Sample 2X, reference compound] | 11.31% | 7.78% | – | – | – | – | –
Tyr-Lys-Tyr [Sample 4X, reference compound] | 9.55% | 18.88% | – | – | – | – | –
